# Patent publication US20260355357A1, “DIAGNOSTIC AGENTS AND USES THEREOF” (HADASIT MEDICAL RESEARCH SERVICES AND DEVELOPMENT LTD., priority 2023, published 2026)
# Legend:
# human brain = settings: in vivo; cited from earlier work
# [1] = Adverse effects after bolus intravenous injection of DDG, rats; assay type: in vivo, rat; settings: bolus i.v., 37 mg/kg to 248 mg/kg (mice and rats), awake up to 78 min
# Experimental: (§1) Mice and rats, males and females at equal numbers, were intravenously injected with a bolus of varying doses of deuterated 2-deoxy-D-glucose (2-DG, DDG, with varying numbers and positions of deuteration). DDGs were provided by CortecNet, France. The injection was performed under sedation in all rats (18) and in 12 of 18 mice, after which the animals woke up within 1 minute. […] Further to euthanasia, the brain, liver, kidneys, heart, and muscle were excised and immediately placed in liquid nitrogen. The frozen tissue samples were kept at −80 °C until further processing.
# (§2) The animals were observed awake for up to 78 min after the injection. The injection bolus was administered in less than 1 s and ranged from 0.1 mL for mice (ca. 25-40 g) to 0.6 mL for rats (ca. 120-160 g).
# [2] = Adverse effects after bolus intravenous injection of DDG, mice; assay type: in vivo, mouse; settings: bolus i.v., 37 mg/kg to 248 mg/kg (mice and rats), awake up to 78 min
# Experimental: as §1, §2
# [3] = Biodistribution of deuterated 2-deoxy-D-glucose, 2H-NMR of tissue extracts, rats; assay type: in vivo, rat; settings: for concentration: [D4]DDG bolus i.v., 37-55 mg/kg (non-labeled 2DG equivalent)
# Experimental: as §1
# (§3) Extraction of the water-soluble metabolites and the lipids was carried out using the dual-phase extraction procedure as described previously [Katz-Brull R, et al. Differential routing of choline in implanted breast cancer and normal organs. Article. Magnetic Resonance in Medicine. July 2001; 46(1):31-38. doi:10.1002/mrm.1157]. Briefly, a frozen sample is placed in 10 mL of ice-cold methanol containing 0.4 mM phenyl phosphonic acid for at least 1 hour. The tissue is then homogenized in ice-cold methanol using a tissue homogenizer. Equal volumes of chloroform and water are then added to the sample tube, and the mixture is vortexed and vigorously shaken. The samples are allowed to stand at 4 °C for at least 24 hours for phase separation. The methanol-water phase is aspirated, treated with Chelex to remove divalent ions, and then lyophilized for at least 24 hours. When the samples are dry (as powder), they are redissolved in 0.5 mL of double-distilled water and transferred to 5-mm NMR tubes for scanning. The samples are scanned in a 9.4 T NMR spectrometer.
# [4] = Biodistribution of deuterated 2-deoxy-D-glucose, 2H-NMR of tissue extracts, mice; assay type: in vivo, mouse; settings: [D4]DDG bolus i.v., 43-45 mg/kg (non-labeled 2DG equivalent)
# Experimental: as §1, §3
# [5] = n=2, read-out: concentration in the heart
compound,measurement,setting,value
OC[C@H]1OC(O)[C@H](F)[C@@H](O)[C@@H]1O (stereo partly drawn) [[18F]-fluoro-2-deoxy-D-glucose],accumulation in the human brain,human brain,accumulates at very high levels in the human brain
"[2H]C([2H])(O)[C@H]1OC(O)C[C@@]([2H])(O)[C@]1([2H])O (stereo partly drawn) [[D4]DDG, [3,4,6,6-D4]2-deoxy-D-glucose]",adverse effects,[1],no adverse effects
same,adverse effects,[2],no adverse effects
same,2H-NMR signal in rat brain extract,"[3]; FIG. 7, 45 mg/kg, awake 36 min, 9.4 T",due to the deuterons of [D4]DDG
same,2H-NMR signal in rat brain extract,"[3]; FIG. 7 legend, awake 30 min","the right signal (full arrow) is of deuterons of [3,4,6,6-D4]2-deoxy-D-glucose"
same,concentration,[3]; [5],2700 µM
same,concentration,"[3]; n=6, read-out: concentration in the brain",1600 µM
same,concentration,"[3]; n=6, read-out: concentration in the muscle",80 µM
same,concentration,"[4]; n=1, read-out: concentration in the kidneys",1790 µM
same,concentration,[4]; [5],3140 µM
same,concentration,"[4]; n=2, read-out: concentration in the liver",230 µM
